According to US20140031217A1, “HERBICIDAL COMPOSITIONS COMPRISING 4-AMINO-3-CHLORO-5-FLUORO-6-(4-CHLORO-2-FLUORO-3-METHOXYPHENYL)PYRIDINE-2-CARBOXYLIC ACID OR A DERIVATIVE THEREOF AND AUXIN TRANSPORT INHIBITORS” (DOW AGROSCIENCES LLC, priority 2012, published 2014):

Experiments:
Details in all cases: 20 DAA
ECHCG [1] = assay: Postemergence foliar-applied greenhouse weed control, ECHCG; assay type: in vivo, Echinochloa crusgalli (L.) Beauv.
Excerpt: (§1) Seeds or nutlets of the desired test plant species were planted in a soil matrix prepared by mixing a loam or sandy loam soil (e.g., 28.6 percent silt, 18.8 percent clay, and 52.6 percent sand, with a pH of about 5.8 and an organic matter content of about 1.8 percent) and calcareous grit in an 80 to 20 ratio. The soil matrix was contained in plastic pots with a volume of 1 quart and a surface area of 83.6 square centimeters (cm^2). When required to ensure good germination and healthy plants, a fungicide treatment and/or other chemical or physical treatment was applied. The plants were grown for 8-22 days in a greenhouse with an approximate 14 h photoperiod which was maintained at about 29° C. during the day and 26° C. during the night. Nutrients (Peters Excel® 15-5-15 5-Ca 2-Mg and iron chelate) were applied in the irrigation solution as needed and water was added on a regular basis. Supplemental lighting was provided with overhead metal halide 1000-Watt lamps as necessary. The plants were employed for testing when they reached the first through fourth true leaf stage.
(§2) Treatments consisted of the acid or esters of 4-amino-3-chloro-5-fluoro-6-(4-chloro-2-fluoro-3-methoxy-phenyl) pyridine-2-carboxylic acid (Compound A), each formulated as an SC (suspension concentrate), and various herbicidal components alone and in combination. Forms of compound A were applied on an acid equivalent basis.
(§3) Other herbicidal components were applied on an active ingredient basis and included auxin transport inhibiting (ATI) herbicides chlorflurenol (technical material), chlorflurenol-methyl (technical material), diflufenzopyr (technical material), diflufenzopyr sodium (technical material), flurenol-methyl (technical material) and naptalam (technical material).
(§4) Treatment requirements were calculated based upon the rates being tested, the concentration of active ingredient or acid equivalent in the formulation, and a 12 mL application volume at a rate of 187 L/ha.
(§5) For treatments comprised of formulated and technical compounds, weighed amounts of the technical materials were placed individually in 25 mL glass vials and dissolved in a volume of 97:3 v/v acetone/DMSO to obtain 12× stock solutions, and measured amounts of the formulated compounds were placed individually in 25 mL glass vials and diluted in a volume of 1.5% (v/v) crop oil concentrate or water to obtain 12× stock solutions. […] Application solutions were prepared by adding an appropriate amount of each stock solution (e.g., 1 mL) and diluted to the appropriate final concentrations with the addition of an appropriate amount of an aqueous mixture of 1.5% (v/v) crop oil concentrate so that the final spray solutions contained 1.25% (v/v) crop oil concentrate. When required, additional water and/or 97:3 v/v acetone/DMSO was added to individual application solutions so that the final acetone and DMSO concentrations of the application solutions being compared were 8.1% and 0.25%, respectively.
(§6) All stock solutions and applications solutions were visually inspected for compound compatibility prior to application. Spray solutions were applied to the plant material with an overhead Mandel track sprayer equipped with an 8002E nozzle calibrated to deliver 187 L/ha over an application area of 0.503 m^2 at a spray height of 18 to 20 inches (46 to 50 cm) above average plant canopy height. Control plants were sprayed in the same manner with the solvent blank.
(§7) The treated plants and control plants were placed in a greenhouse as described above and watered by sub-irrigation to prevent wash-off of the test compounds. After approximately 3 weeks, the condition of the test plants as compared with that of the untreated plants was determined visually and scored on a scale of 0 to 100 percent where 0 corresponds to no injury or growth inhibition and 100 corresponds to complete kill. […]

CYPIR = assay: Postemergence foliar-applied greenhouse weed control, CYPIR; assay type: in vivo, Cyperus iria L.
Excerpt: as §1, §2, §3, §4, §5, §6, §7

ECHCO = assay: Postemergence foliar-applied greenhouse weed control, ECHCO; assay type: in vivo, Echinochloa colona (L.) Link
Excerpt: as §1, §2, §3, §4, §5, §6, §7

LEFCH [2] = assay: Postemergence foliar-applied greenhouse weed control, LEFCH; assay type: in vivo, Leptochloa chinensis (L.) Nees
Excerpt: as §1, §2, §3, §4, §5, §6, §7

ECHOR = assay: In-water applied (paddy) greenhouse weed control, ECHOR; assay type: in vivo, Echinochloa oryzoides (Ard.) Fritsch
Procedure: (§8) Weed seeds or nutlets of the desired test plant species were planted in puddled soil (mud) prepared by mixing a shredded, non-sterilized mineral soil (50.5 percent silt, 25.5 percent clay, and 24 percent sand, with a pH of about 7.6 and an organic matter content of about 2.9 percent) and water at a 1:1 volumetric ratio. The prepared mud was dispensed in 365 mL aliquots into 16-ounce (oz.) non-perforated plastic pots with a surface area of 86.59 square centimeters (cm^2) leaving a headspace of 3 centimeters (cm) in each pot. Mud was allowed to dry overnight prior to planting or transplanting. Rice seeds were planted in Sun Gro MetroMix® 306 planting mixture, which typically has a pH of 6.0 to 6.8 and an organic matter content of about 30 percent, in plastic plug trays. Seedlings at the second or third leaf stage of growth were transplanted into 840 mL of mud contained in 32-oz. non-perforated plastic pots with a surface area of 86.59 cm^2 4 days prior to herbicide application. The paddy was created by filling the headspace of the pots with 2.5 to 3 cm of water. When required to ensure good germination and healthy plants, a fungicide treatment and/or other chemical or physical treatment was applied. The plants were grown for 4-22 days in a greenhouse with an approximate 14 h photoperiod which was maintained at about 29′C during the day and 26° C. during the night. Nutrients were added as Osmocote® (19:6:12, N:P:K+minor nutrients) at 2 g per 16-oz. pot and 4 g per 960-mL 32-oz. pot. Water was added on a regular basis to maintain the paddy flood, and supplemental lighting was provided with overhead metal halide 1000-Watt lamps as necessary. The plants were employed for testing when they reached the second or third true leaf stage.
(§9) Treatments consisted of the acid or esters of 4-amino-3-chloro-5-fluoro-6-(4-chloro-2-fluoro-3-methoxy-phenyl)pyridine-2-carboxylic acid (compound A) each formulated as an SC and various herbicidal components alone and in combination. Forms of compound A were applied on an acid equivalent basis.
(§10) Other herbicidal components were applied on an active ingredient basis and included auxin transport inhibiting (ATI) herbicides chlorflurenol-methyl (technical material), chlorflurenol (technical material), diflufenzopyr (technical material), dilfufenzopyr sodium (technical material), flurenol-methyl (technical material,) and naptalam (technical material).
(§11) Treatment requirements for each compound or herbicidal component were calculated based upon the rates being tested, the concentration of active ingredient or acid equivalent in the formulation, an application volume of 2 mL per component per pot, and an application area of 86.59 cm^2 per pot.
(§12) For formulated compounds, a measured amount was placed in an individual 100 or 200 mL glass vial and was dissolved in a volume of 1.25% (v/v) Agri-Dex® crop oil concentrate to obtain application solutions.
(§13) For technical grade compounds, a weighed amount was placed in an individual 100 to 200 mL glass vial and was dissolved in a volume of acetone to obtain concentrated stock solutions. […] The concentrated stock solutions obtained were diluted with an equivalent volume of an aqueous mixture containing 2.5% (v/v) crop oil concentrate so that the final application solutions contained 1.25% (v/v) crop oil concentrate.
(§14) Applications were made by injecting with a pipetter appropriate amounts of the application solutions, individually and sequentially, into the aqueous layer of the paddy. Control plants were treated in the same manner with the solvent blank. Applications were made so that all treated plant material received the same concentrations of acetone and crop oil concentrate.
(§15) The treated plants and control plants were placed in a greenhouse as described above and water was added as needed to maintain a paddy flood. […]

SCPMA = assay: In-water applied (paddy) greenhouse weed control, SCPMA; assay type: in vivo
Procedure: as §8, §9, §10, §11, §12, §13, §14, §15

ECHCG [3] = assay: In-water applied (paddy) greenhouse weed control, ECHCG; assay type: in vivo, Echinochloa crusgalli (L.) Beauv.
Procedure: as §8, §9, §10, §11, §12, §13, §14, §15

IPOHE = assay: Postemergence foliar-applied greenhouse weed control, IPOHE; assay type: in vivo, Ipomoea hederacea Jacq.
Excerpt: as §1, §2, §3, §4, §5, §6, §7

DIGSA = assay: Postemergence foliar-applied greenhouse weed control, DIGSA; assay type: in vivo, Digitaria sanguinalis (L.) Scop.
Excerpt: as §1, §2, §3, §4, §5, §6, §7

LEFCH [4] = assay: In-water applied (paddy) greenhouse weed control, LEFCH; assay type: in vivo, Leptochloa chinensis (L.) Nees
Procedure: as §8, §9, §10, §11, §12, §13, §14, §15

**Q.** Which “Visual Weed Control (%) Obs” value (ECHCG [1]; 68.75 gai/ha) does the source give for COC(=O)C1(O)c2ccccc2-c2ccc(Cl)cc21 (stereo not shown) [Chlorflurenol-Methyl, methyl 2-chloro-9-hydroxy-9H-fluorene-9-carboxylate, reference compound] here?
**A.** 0%

**Q.** And the “Visual Weed Control (%) Obs” value (ECHCG [1]; 137.5 gai/ha)?
**A.** 0%

**Q.** What about the “Visual Weed Control (%) Obs” value (ECHCG [1]; 275 gai/ha) of the same compound?
**A.** 0%

**Q.** And the “Visual Weed Control (%) Obs” value (CYPIR; 68.75 gai/ha)?
**A.** 0%

**Q.** And the “Visual Weed Control (%) Obs” value (CYPIR; 137.5 gai/ha)?
**A.** 0%

**Q.** And the “Visual Weed Control (%) Obs” value (CYPIR; 275 gai/ha)?
**A.** 0%

**Q.** And the “Visual Weed Control (%) Obs” value (ECHCO; 68.75 gai/ha)?
**A.** 0%

**Q.** And the “Visual Weed Control (%) Obs” value (ECHCO; 137.5 gai/ha)?
**A.** 0%

**Q.** What about the “Visual Weed Control (%) Obs” value (ECHCO; 275 gai/ha) of the same compound?
**A.** 0%

**Q.** What about the “Visual Weed Control (%) Obs” value (LEFCH [2]; 68.75 gai/ha) of the same compound?
**A.** 0%

**Q.** And the “Visual Weed Control (%) Obs” value (LEFCH [2]; 137.5 gai/ha)?
**A.** 10%

**Q.** And the “Visual Weed Control (%) Obs” value (LEFCH [2]; 275 gai/ha)?
**A.** 10%

**Q.** And the “Visual Weed Control (%) Obs” value (ECHOR; 275 gai/ha)?
**A.** 20%

**Q.** And the “Visual Weed Control (%) Obs” value (ECHOR; 550 gai/ha)?
**A.** 10%

**Q.** What about the “Visual Weed Control (%) Obs” value (SCPMA; 275 gai/ha) of the same compound?
**A.** 75%

**Q.** What about the “Visual Weed Control (%) Obs” value (SCPMA; 550 gai/ha) of the same compound?
**A.** 80%

**Q.** And the “Visual Weed Control (%) Obs” value (ECHCG [3]; 275 gai/ha)?
**A.** 15%

**Q.** And the “Visual Weed Control (%) Obs” value (ECHCG [3]; 550 gai/ha)?
**A.** 20%

**Q.** What about the “Visual Weed Control (%) Obs” value (IPOHE; 137.5 gai/ha) of the same compound?
**A.** 50%

**Q.** What about the “Visual Weed Control (%) Obs” value (IPOHE; 275 gai/ha) of the same compound?
**A.** 55%

**Q.** And the “Visual Weed Control (%) Obs” value (DIGSA; 68.75 gai/ha)?
**A.** 0%

**Q.** What about the “Visual Weed Control (%) Obs” value (DIGSA; 137.5 gai/ha) of the same compound?
**A.** 0%

**Q.** And the “Visual Weed Control (%) Obs” value (DIGSA; 275 gai/ha)?
**A.** 0%

**Q.** What about the “Visual Weed Control (%) Obs” value (LEFCH [4]; 275 gai/ha) of the same compound?
**A.** 0%

**Q.** What about the “Visual Weed Control (%) Obs” value (LEFCH [4]; 550 gai/ha) of the same compound?
**A.** 0%
